In publication PMC9431551, “Isolation of the Thermostable β-Glucosidase-Secreting Strain Bacillus altitudinis JYY-02 and Its Application in the Production of Gardenia Blue” (Microbiology Spectrum, 2022):

System: T1, recombinant β-glucosidase of B. altitudinis JYY-02 (bgl)
T1 construct: full-length ORF 1,467 bp, 488 residues, N-terminus MTTIKG from forward primer; E. coli BL21(DE3); 54 kDa
Experiment: p-nitrophenol release at […] nm, Lineweaver-Burk plot
Type: biochemical, Bacillus altitudinis
Conditions: citrate-disodium hydrogen phosphate buffer 0.2 M, pH 5.6, 55°C (standard assay); abstract prints 0.331 mM

Km: 332 µM
SMILES: O=[N+]([O-])c1ccc(O[C@@H]2O[C@H](CO)[C@@H](O)[C@H](O)[C@H]2O)cc1 [p-nitrophenyl-β-D-glucopyranoside]
